IC50 data for 23 molecules are collected here from patent US20250134869A1, “Pyrrolo[2,3-d]pyrimidinyl, Pyrrolo[2,3-b]pyrazinyl and Pyrrolo[2,3-d]pyridinyl Acryla-mides” (Pfizer Inc, priority 2021, published 2025).

Read-outs that look alike come from different tables or passages of the source.

Assay [1] relates to IL-15 induced STAT5 phosphorylation in human whole blood lymphocytes. Nature of the assay: HWB IL-15 induced STAT5 phosphorylation assay. In kind it is cell-based. As to conditions: Lymphocyte, IL-15 stimulated, read-out: HWB-IL15-pSTAT5 IC50. On the procedure: HWB IL-15 Induced STAT5 Phosphorylation Assay
After mixing and incubating for 45 minutes at 37° C., 5 μl D-PBS (unstimulated control) or 20× stocks of 5 μl human IL-15 (final concentration is 50 ng/ml) were added, and mixed three times. After incubating 15 minutes at 37° C., 1× Lyse/Fix Buffer (BD Phosflow 5× Lyse/Fix Buffer) was added to all wells at 1000 μl/well, then incubated for 20 minutes at 37° C. and spun 5 mins at 1200 rpm. […] Following incubating at 4° C. over night, all the samples were transferred to 96-well polypropylene U-bottom plate, and checked by flow cytometry gated on total lymphocytes.

For a further assay, the target named is JAK3 enzyme (Homo sapiens (Human), UniProt P52333). Nature of the assay: JAK Caliper Enzyme Assay at 4 μM or 1 mM ATP. The format is biochemical.
Sequence of JAK3 enzyme (P52333 whole entry, species assumed): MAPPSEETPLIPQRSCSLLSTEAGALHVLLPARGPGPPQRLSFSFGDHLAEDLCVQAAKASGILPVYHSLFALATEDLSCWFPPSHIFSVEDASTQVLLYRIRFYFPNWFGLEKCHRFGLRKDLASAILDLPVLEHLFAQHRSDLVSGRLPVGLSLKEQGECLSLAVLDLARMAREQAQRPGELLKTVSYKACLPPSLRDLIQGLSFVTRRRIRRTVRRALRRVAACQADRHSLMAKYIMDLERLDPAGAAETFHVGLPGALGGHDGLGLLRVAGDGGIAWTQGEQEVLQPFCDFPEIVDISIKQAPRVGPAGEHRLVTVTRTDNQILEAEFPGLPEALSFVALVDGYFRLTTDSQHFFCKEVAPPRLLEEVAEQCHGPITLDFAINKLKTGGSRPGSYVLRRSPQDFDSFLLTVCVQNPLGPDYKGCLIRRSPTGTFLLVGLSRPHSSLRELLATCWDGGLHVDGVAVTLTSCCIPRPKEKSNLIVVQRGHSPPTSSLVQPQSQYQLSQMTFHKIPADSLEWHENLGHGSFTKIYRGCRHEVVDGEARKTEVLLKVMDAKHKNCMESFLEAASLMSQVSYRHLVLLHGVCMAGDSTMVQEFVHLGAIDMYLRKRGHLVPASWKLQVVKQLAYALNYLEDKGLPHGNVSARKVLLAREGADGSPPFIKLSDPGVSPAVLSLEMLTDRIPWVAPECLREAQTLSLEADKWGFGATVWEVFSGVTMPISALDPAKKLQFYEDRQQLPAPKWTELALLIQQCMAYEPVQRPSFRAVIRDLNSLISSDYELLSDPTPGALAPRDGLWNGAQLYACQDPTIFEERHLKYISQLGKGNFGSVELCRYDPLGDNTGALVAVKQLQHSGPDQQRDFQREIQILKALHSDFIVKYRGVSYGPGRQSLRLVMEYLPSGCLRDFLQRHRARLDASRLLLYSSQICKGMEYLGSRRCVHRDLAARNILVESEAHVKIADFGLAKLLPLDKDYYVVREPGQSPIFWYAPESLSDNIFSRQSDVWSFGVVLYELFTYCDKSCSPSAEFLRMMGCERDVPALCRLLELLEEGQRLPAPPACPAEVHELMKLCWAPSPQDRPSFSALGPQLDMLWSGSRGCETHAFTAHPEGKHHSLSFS
Assay [2] has as its system IL-15 induced P-STAT5 in human PBMC. Put plainly: PBMC IL-15 induced P-STAT5. In kind it is cell-based. The following applies: human PBMC, IL-15 stimulated, read-out: PBMC IL15-pSTAT5 IC50. How it is done:
PBMC IL-15 Induced P-STAT5
Frozen human PBMC (200-250 million cells/vial) was thawed at 37° C. The cells were transferred to 10 mL warm medium in a 50-mL conical tube, and centrifuged at 1,200 RPM at room temperature for 5 min. The supernatant was aspirated. […] After adding 47 ml D-PBS (37° C.) to PBMC/FBS suspension, centrifuging at 1,200 RPM at room temperature for 5 min, and aspirating the supernatant, the cells were resuspended in 20 mL warm RPMI medium. Ninety μL of cell suspension were pipetted per well in a 96-well, deep-well, V-bottom plate, and the plate was incubated at 37° C. for 30 min. […] After adding 0.8 mL staining buffer per well, the plates were centrifuged at 1,200 RPM (Beckman GS-6R or Sorvall Legend) at room temperature for 5 min, and again the supernatant was aspirated using a 8-channel or 12-channel manifold. The plate was vortexed, and 0.35 mL 90% methanol/10% H2O (−20° C.) was added per well, and the plate incubated on ice for 20 min. After again adding 0.8 mL staining buffer per well, the plates were centrifuged at 1,200 RPM (Beckman GS-6R or Sorvall Legend) at room temperature for 5 min, and again the supernatant was aspirated using a 8-channel or 12-channel manifold, and then 0.8 mL Staining buffer was added per well. After once again adding 0.8 mL staining buffer per well, the plates were centrifuged at 1,200 RPM (Beckman GS-6R or Sorvall Legend) at room temperature for 5 min, and again the supernatant was aspirated using a 8-channel or 12-channel manifold. […] Samples of 250 μL/well were transferred to a 96-well U-bottom plate, and the FACS analysis was performed gating on total lymphocytes. Samples were analyzed using a BD Calibur™ or BD FACSCanto™ flow cytometer equipped with the BD High Throughput Sampler.

The mark [3] stands for this setting: read-out: JAK3 (4 μM ATP) IC50, 4 μM ATP.
Where [4] appears, read: read-out: JAK3 (1 mM ATP) IC50, 1 mM ATP.

`C=CC(=O)N[C@H]1C[C@@H](Nc2cnc3[nH]cc(C(=O)NC(C)C)c3n2)C1` [Example 184, 2-{[cis-3-(acryloylamino)cyclobutyl]amino}-N-(propan-2-yl)-5H-pyrrolo[2,3-b]pyrazine-7-carboxamide]: the IC50 in assay [1] was more than 10000 nM; on JAK3 enzyme (setting [3]), 1.5 nM; at JAK3 enzyme (setting [4]), 210 nM.
As for `C=CC(=O)N1CCC(Nc2cnc3[nH]cc(C(=O)N[C@H]4CCC[C@H](CC#N)C4)c3n2)CC1` [Example 262, 2-[(1-acryloylpiperidin-4-yl)amino]-N-[(1S,3S)-3-(cyanomethyl)cyclohexyl]-5H-pyrrolo[2,3-b]pyrazine-7-carboxamide], the IC50 in assay [1] is more than 10000 nM.
As to `C=CC(=O)N1CCC(Nc2cnc3[nH]cc(C(=O)NCCCCCCCCC#N)c3n2)CC1` [Example 260, 2-[(1-acryloylpiperidin-4-yl)amino]-N-(8-cyanooctyl)-5H-pyrrolo[2,3-b]pyrazine-7-carboxamide], the IC50 in assay [1] is more than 10000 nM.
With `C=CC(=O)N1C[C@@H]2C(Nc3cnc4[nH]cc(C(=O)NC(C)C)c4n3)[C@@H]2C1` (stereo partly drawn) [Example 189, 2-{[(1R,5S,6s)-3-acryloyl-3-azabicyclo[3.1.0]hex-6-yl]amino}-N-(propan-2-yl)-5H-pyrrolo[2,3-b]pyrazine-7-carboxamide], the IC50 was more than 10000 nM in assay [1], 1.1 nM on JAK3 enzyme (setting [3]) and 198 nM at JAK3 enzyme (setting [4]).
Taken in the same sequence, the figures for `C=CC(=O)N1CCC(Oc2cnc3[nH]cc(-c4ccnc(C)c4)c3n2)CC1` [Example 220, 1-(4-{[7-(2-methylpyridin-4-yl)-5H-pyrrolo[2,3-b]pyrazin-2-yl]oxy}piperidin-1-yl)prop-2-en-1-one] were more than 10000 nM, 0.8 nM and 70.4 nM.
The corresponding values for `C=CC(=O)N1CCC(Nc2cnc3[nH]cc(-c4cncc(C#N)c4)c3n2)CC1` [Example 206, 5-{2-[(1-acryloylpiperidin-4-yl)amino]-5H-pyrrolo[2,3-b]pyrazin-7-yl}pyridine-3-carbonitrile] are more than 10000 nM, 0.1 nM and 19.6 nM.
In the case of `C=CC(=O)N1CC[C@@H](Nc2cnc3[nH]ccc3n2)C1` [Example 335, (R)-1-(3-((5H-Pyrrolo[2,3-b]pyrazin-2-yl)amino)pyrrolidin-1-yl)prop-2-en-1-one], the IC50 at JAK3 enzyme (setting [3]) is 622 nM; in assay [2], more than 10000 nM.
On to `C=CC(=O)N1CCC[C@@H](Nc2ccnc3[nH]cc(C)c23)C1` [Example 47, 1-{(3R)-3-[(3-methyl-1H-pyrrolo[2,3-b]pyridin-4-yl)amino]piperidin-1-yl}prop-2-en-1-one], for which the IC50 on JAK3 enzyme (setting [3]) is 4 nM; on JAK3 enzyme (setting [4]), 608 nM; in assay [2], 1080 nM.
Taken in the same sequence, the figures for `C=CC(=O)N1CC[C@H](Nc2cnc3[nH]ccc3n2)C1` [Example 336, (S)-1-(3-((5H-Pyrrolo[2,3-b]pyrazin-2-yl)amino)pyrrolidin-1-yl)prop-2-en-1-one] were 30.6 nM, 3400 nM and more than 10000 nM.
Regarding `C=CC(=O)N1CC[C@]2(C)CCN(c3ncnc4[nH]ccc34)[C@@H]2C1` [Example 59, 1-((3aS,7aS)-3a-Methyl-1-(7H-pyrrolo[2,3-d]pyrimidin-4-yl)hexahydro-1H-pyrrolo[2,3-c]pyridin-6 (2H)-yl)prop-2-en-1-one], the IC50 at JAK3 enzyme (setting [3]) was 3.2 nM; at JAK3 enzyme (setting [4]), 403 nM; in assay [2] (Homo sapiens, PBMC), more than 2550 nM.
`C=C(CO)C(=O)N1CCC[C@@H](Nc2ncnc3[nH]ccc23)C1` [Example 93, 2-(hydroxymethyl)-1-[(3R)-3-(7H-pyrrolo[2,3-d]pyrimidin-4-ylamino)piperidin-1-yl]prop-2-en-1-one]: the IC50 is 703 nM at JAK3 enzyme (setting [3]), more than 10000 nM on JAK3 enzyme (setting [4]) and more than 10000 nM in assay [2].
Turning to `C=CC(=O)N1CCC[C@@H](Nc2ncnc3[nH]cc(-c4cnn(C)c4)c23)C1` [Example 28, 1-[(3R)-3-{[5-(1-methyl-1H-pyrazol-4-yl)-7H-pyrrolo[2,3-d]pyrimidin-4-yl]amino}piperidin-1-yl]prop-2-en-1-one], the IC50 at JAK3 enzyme (setting [3]) was 48.2 nM; on JAK3 enzyme (setting [4]), 358 nM; in assay [2] it was more than 10000 nM.
Regarding `C=CC(=O)N1C[C@H](C)C[C@@H](Nc2ncnc3[nH]ccc23)C1` (racemic) [Example 65, Rac-1-((3R,5R)-3-((7H-Pyrrolo[2,3-d]pyrimidin-4-yl)amino)-5-methylpiperidin-1-yl)prop-2-en-1-one], in assay [1], the IC50 was more than 10000 nM.
In the case of `C=CC(=O)N1CCC(Oc2cnc3[nH]cc(-c4cccnc4F)c3n2)CC1` [Example 217, 1-(4-{[7-(2-fluoropyridin-3-yl)-5H-pyrrolo[2,3-b]pyrazin-2-yl]oxy}piperidin-1-yl)prop-2-en-1-one], the IC50 was more than 10000 nM in assay [1], 0.7 nM on JAK3 enzyme (setting [3]) and 42.4 nM at JAK3 enzyme (setting [4]).
`C=C(COC)C(=O)N1CCC[C@@H](Nc2ncnc3[nH]ccc23)C1` [Example 94, 2-(methoxymethyl)-1-[(3R)-3-(7H-pyrrolo[2,3-d]pyrimidin-4-ylamino)piperidin-1-yl]prop-2-en-1-one]: the IC50 on JAK3 enzyme (setting [3]) was 802 nM; at JAK3 enzyme (setting [4]), more than 10000 nM; in assay [2] it was more than 10000 nM.
On to `C=CC(=O)N1CCC(Oc2cnc3[nH]cc(-c4ccc(F)nc4)c3n2)CC1` [Example 226, 1-(4-{[7-(6-fluoropyridin-3-yl)-5H-pyrrolo[2,3-b]pyrazin-2-yl]oxy}piperidin-1-yl)prop-2-en-1-one], for which the results for the IC50 (at JAK3 enzyme (setting [3]); on JAK3 enzyme (setting [4]); in assay [2]) were 1 nM, 91 nM and 699 nM, respectively.
The corresponding values for `CN(C)C/C=C/C(=O)N1CC[C@@H]2CCN(c3ncnc4[nH]ccc34)[C@@H]2C1` [Example 82, (2E)-4-(dimethylamino)-1-[(3aS,7aS)-1-(7H-pyrrolo[2,3-d]pyrimidin-4-yl)octahydro-6H-pyrrolo[2,3-c]pyrdin-6-yl]but-2-en-1-one] are 57.2 nM, 5290 nM and more than 7300 nM.
In the case of `C=CC(=O)N1CCC(Oc2cnc3[nH]cc(-c4cncc(F)c4)c3n2)CC1` [Example 213, 1-(4-{[7-(5-fluoropyridin-3-yl)-5H-pyrrolo[2,3-b]pyrazin-2-yl]oxy}piperidin-1-yl)prop-2-en-1-one], the IC50 in assay [1] was more than 10000 nM; on JAK3 enzyme (setting [3]) it was 0.8 nM; at JAK3 enzyme (setting [4]), 69.4 nM.
`C=CC(=O)N1C[C@H](OC)C[C@@H](N(C)c2ncnc3[nH]ccc23)C1` [Example 78, 1-{(3R,5R)-3-Methoxy-5-[methyl(7H-pyrrolo[2,3-d]pyrimidin-4-yl)amino]piperidin-1-yl}prop-2-en-1-one]: the IC50 at JAK3 enzyme (setting [3]) is 387 nM; on JAK3 enzyme (setting [4]), more than 10000 nM; in assay [2] it was more than 10000 nM.
In the case of `C=CC(=O)N1CCC(Oc2cnc3[nH]cc(-c4cncc(C#N)c4)c3n2)CC1` [Example 225, 5-{2-[(1-acryloylpiperidin-4-yl)oxy]-5H-pyrrolo[2,3-b]pyrazin-7-yl}pyridine-3-carbonitrile], the IC50 worked out at 1.4 nM on JAK3 enzyme (setting [3]), 120 nM at JAK3 enzyme (setting [4]) and 2910 nM in assay [2].
Turning to `C=CC(=O)N1CC[C@@H]2CCN(c3ncnc4[nH]cc(CCOC)c34)[C@@H]2C1` [Example 89, 1-{(3aS,7aS)-1-[5-(2-Methoxyethyl)-7H-pyrrolo[2,3-d]pyrimidin-4-yl]octahydro-6H-pyrrolo[2,3-c]pyridin-6-yl}prop-2-en-1-one], the IC50 at JAK3 enzyme (setting [3]) was 35.2 nM; on JAK3 enzyme (setting [4]), 3940 nM; in assay [2], more than 6160 nM.
As to `C=CC(=O)N1CCC(Nc2cnc3[nH]cc(-c4ccc(C)nc4)c3n2)CC1` [Example 199, 1-(4-{[7-(6-methylpyridin-3-yl)-5H-pyrrolo[2,3-b]pyrazin-2-yl]amino}piperidin-1-yl)prop-2-en-1-one], the IC50 in assay [1] was more than 10000 nM; at JAK3 enzyme (setting [3]) it was 1.2 nM; at JAK3 enzyme (setting [4]) it was 101 nM.
For the molecule `C=CC(=O)c1c[nH]c2ncnc(N[C@H]3CN(C(=O)C=C)CC[C@H]3F)c12` [Example 120, 1-(4-{[(3S,4R)-1-Acryloyl-4-fluoropiperidin-3-yl]amino}-7H-pyrrolo[2,3-d]pyrimidin-5-yl)prop-2-en-1-one], the values for the concentration for half-maximal inhibition (IC50) (at JAK3 enzyme (setting [3]); on JAK3 enzyme (setting [4]); in assay [2]) were 692 nM, more than 10 nM and more than 10000 nM, respectively.
